The values below come from US10676446B2, “Bicyclic quinazolinone derivatives” (Hoffmann-La Roche Inc., priority 2015, dated 2020).

The structures appear in SMILES notation.

The target in this assay is human ATX (autotaxin, ENPP2), His-tagged (Homo sapiens (Human), UniProt Q13822). The experiment in a line: Human ATX enzyme inhibition assay (fluorescence quenching, MR121 substrate). It counts as biochemical. To be noted: 30 nM ATX, 1 μM MR121 substrate, 30° C., pH 8.0. The method in brief: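 His-tagged human ATX (30 nM final) preincubated 15 min at 30 °C with serially diluted compound in Tris-HCl pH 8.0 buffer with Ca2+, Mg2+ and 0.01% Triton X-100. MR121-labelled fluorescence-quenched substrate then added (1 μM final) for a further 15 min at 30 °C; fluorescence read-out.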
The term IC50 denotes the concentration needed to halve the response being measured. Higher therefore signals weaker potency. For `CC(=O)N1CCN(c2ccc3ncn(CC(=O)NCc4ccc(C#N)cc4OCC(F)(F)F)c(=O)c3c2)CC1` [Example 33], half-maximal inhibition (IC50) required 0.245 µM.

Consider `CN(Cc1ccc(C#N)c(Cl)c1)C(=O)Cn1cnc2ccc(C3CCN(C(=O)CO)CC3)cc2c1=O` [Example 131, N-[(3-Chloro-4-cyanophenyl)methyl]-2-[6-[1-(2-hydroxyacetyl)piperidin-4-yl]-4-oxoquinazolin-3-yl]-N-methylacetamide], for which the IC50 was 0.001 µM.

In turn, `CC(=O)N1CCN(c2ccc3ncn(CC(=O)NC(C)c4ccc(Cl)cc4)c(=O)c3c2)CC1` (stereo not drawn) [Example 13] returned an IC50 of 0.478 µM.

Take `CN(Cc1ccc(C#N)c(Cl)c1)C(=O)Cn1cnc2ccc(C3CCN(C(=O)CCC#N)CC3)cc2c1=O` [Example 155, N-[(3-Chloro-4-cyanophenyl)methyl]-2-[6-[1-(3-cyanopropanoyl)piperidin-4-yl]-4-oxoquinazolin-3-yl]-N-methylacetamide]: half-maximal inhibition (IC50) was put at 0.153 µM.

`CC(=O)N1CCC(O)(c2ccc3ncn(CC(=O)N(C)Cc4ccc(C#N)c(Cl)c4)c(=O)c3c2)CC1` [Example 185, 2-[6-(1-Acetyl-4-hydroxypiperidin-4-yl)-4-oxoquinazolin-3-yl]-N-[(3-chloro-4-cyanophenyl)methyl]-N-methylacetamide] yielded an IC50 of 0.125 µM.

Consider `CN(Cc1ccc(C#N)c(Cl)c1)C(=O)Cn1cnc2ccc(C3CCN(C(=O)C4CC(Cl)C4)CC3)cc2c1=O` (stereo not drawn) [Example 139], for which the 50% inhibitory concentration (IC50) came to 0.018 µM.

For the molecule `CNC(=O)CN1CCN(c2ccc3ncn(CC(=O)N(C)Cc4ccc(Cl)c(Cl)c4)c(=O)c3c2)CC1` [Example 107, N-[(3,4-Dichlorophenyl)methyl]-N-methyl-2-[6-[4-[2-(methylamino)-2-oxoethyl]piperazin-1-yl]-4-oxoquinazolin-3-yl]acetamide], the midpoint of inhibition, the IC50, lay at 0.067 µM.

Regarding `CC(=O)N1CCN(c2ccc3ncn(CC(=O)N(C)Cc4ccc(C#N)c(Cl)c4)c(=O)c3c2)CC1` [Example 56, 2-[6-(4-Acetylpiperazin-1-yl)-4-oxoquinazolin-3-yl]-N-[(3-chloro-4-cyanophenyl)methyl]-N-methylacetamide], the half-maximal inhibitory concentration (IC50) came to 0.008 µM.

With `CC(=O)N1CCN(c2ccc3ncn(CC(=O)NCc4c(F)cc(C#N)cc4F)c(=O)c3c2)CC1` [Example 31], the IC50 is 0.331 µM.

`CC(=O)N1CCC(c2ccc3ncn(CC(=O)N(C)Cc4ccc(C#N)c(Cl)c4)c(=O)c3c2)CC1` [Example 125] had an IC50 of 0.007 µM.

Regarding `O=C(Cn1cnc2ccc(N3CCN(Cc4ccoc4C(=O)O)CC3)cc2c1=O)NCc1ccc(Cl)c(Cl)c1` [Example 102], the midpoint of inhibition, the IC50, lay at 0.195 µM.

In the case of `O=C(Cn1cnc2ccc(N3CCN(CCO)CC3)cc2c1=O)NCc1ccc(Cl)c(Cl)c1` [Example 94, N-[(3,4-Dichlorophenyl)methyl]-2-[6-[4-(2-hydroxyethyl)piperazin-1-yl]-4-oxoquinazolin-3-yl]acetamide], it took 0.067 µM to reach half-maximal inhibition (IC50).

`CN(Cc1ccc(Cl)c(Cl)c1)C(=O)Cn1cnc2ccc(N3CCN(S(=O)(=O)CC4CCC4)CC3)cc2c1=O` [Example 92] showed an IC50 of 0.007 µM.

`CC(=O)N1CCN(c2ccc3ncn(CC(=O)N[C@H](CC(N)=O)c4ccc(Cl)cc4)c(=O)c3c2)CC1` [Example 27] returned a half-inhibitory concentration (IC50) of 0.34 µM.

In turn, `CN(Cc1ccc(Cl)c(Cl)c1)C(=O)Cn1cnc2ccc(C3CCN(C(=O)c4cnco4)CC3)cc2c1=O` [Example 183] registered an IC50 of 0.028 µM.

For the molecule `CC(=O)N1CCN(c2ccc3[nH]c(=O)n(CC(=O)NCc4ccc(Cl)c(Cl)c4)c(=O)c3c2)CC1` [Example 152, 2-[6-(4-Acetylpiperazin-1-yl)-2,4-dioxo-1H-quinazolin-3-yl]-N-[(3,4-dichlorophenyl)methyl]acetamide], the 50% inhibitory concentration (IC50) worked out at 0.18 µM.

Take `CC(=O)N1CCN(c2ccc3ncn(CC(=O)NCc4ccc(Cl)c(Cl)c4)c(=O)c3c2)CC1` [Example 22]: half-maximal inhibition (IC50) was put at 0.091 µM.

With `CC(=O)N1CCN(c2ccc3ncn(CC(=O)NCc4ccc(Cl)cn4)c(=O)c3c2)CC1` [Example 12], the IC50 was 0.148 µM.

As to `CO[C@H](C)C(=O)N1CCC(c2ccc3ncn(CC(=O)N(C)Cc4ccc(C#N)c(Cl)c4)c(=O)c3c2)CC1` [Example 158], half-maximal inhibition (IC50) was put at 0.002 µM.

Molecule `CN(Cc1ccc(Cl)c(Cl)c1)C(=O)Cn1cnc2ccc(C3CCN(C(=O)C4CCCO4)CC3)cc2c1=O` (stereo not drawn) [Example 180] registered a half-maximal inhibitory concentration (IC50) of 0.005 µM.

`CCCCC(=O)N1CCN(c2ccc3ncn(CC(=O)NCc4ccc(Cl)c(Cl)c4)c(=O)c3c2)CC1` [Example 60] registered an IC50 of 0.01 µM.

As to `O=C(Cn1cnc2ccc(N3CCN(C(=O)Nc4cccnc4)CC3)cc2c1=O)NCc1ccc(Cl)c(Cl)c1` [Example 87], half-maximal inhibition (IC50) required 0.076 µM.

For `COCCOCC(=O)N1CCC(c2ccc3ncn(CC(=O)N(C)Cc4ccc(Cl)c(Cl)c4)c(=O)c3c2)CC1` [Example 166], the IC50 amounted to 0.627 µM.

`CN(Cc1ccc(C#N)c(Cl)c1)C(=O)Cn1cnc2ccc(C3CCN(C(=O)C4CC4)CC3)cc2c1=O` [Example 136] returned a concentration for half-maximal inhibition (IC50) of 0.001 µM.

In the case of `CC(=O)N1CCN(c2ccc3ncn(CC(=O)NC(CC(=O)Nc4ccccc4)c4ccc(Cl)cc4)c(=O)c3c2)CC1` (stereo not drawn) [Example 3], 0.198 µM corresponded to half-maximal inhibition (IC50).

Molecule `CC(=O)N1CCN(c2ccc3ncn(CC(=O)NCc4ccc(C#N)cc4Cl)c(=O)c3c2)CC1` [Example 29] had a concentration for half-maximal inhibition (IC50) of 0.175 µM.

`O=C(Cn1cnc2ccc(N3CCN(C(=O)C4CCC4)CC3)cc2c1=O)NCc1ccc(Cl)c(Cl)c1` [Example 63] registered a 50% inhibitory concentration (IC50) of 0.011 µM.

As to `C[C@@H](O)C(=O)N1CCC(c2ccc3ncn(CC(=O)N(C)Cc4ccc(Cl)c(Cl)c4)c(=O)c3c2)CC1` [Example 174], the IC50 stood at 0.002 µM.

`COC(=O)CCN(Cc1ccc(Cl)c(Cl)c1)C(=O)Cn1cnc2ccc(N3CCN(C(C)=O)CC3)cc2c1=O` [Example 53, Methyl 3-[[2-[6-(4-acetylpiperazin-1-yl)-4-oxoquinazolin-3-yl]acetyl]-[(3,4-dichlorophenyl)methyl]amino]propanoate] came in with a half-maximal inhibitory concentration (IC50) of 0.018 µM.

In turn, `O=C(Cn1cnc2ccc(N3CCN(CC4CCC4)CC3)cc2c1=O)NCc1ccc(Cl)c(Cl)c1` [Example 96] returned an IC50 of 0.011 µM.

`O=C(Cn1cnc2ccc(N3CCN(CC4CCOC4)CC3)cc2c1=O)NCc1ccc(Cl)c(Cl)c1` (stereo not drawn) [Example 97]: the IC50 was determined as 0.004 µM.

In turn, `CN(Cc1ccc(C#N)c(Cl)c1)C(=O)Cn1cnc2ccc(C3CCN(C(=O)C4CC(F)(F)C4)CC3)cc2c1=O` [Example 140] registered an IC50 of 0.047 µM.

`CN(Cc1ccc(C#N)c(Cl)c1)C(=O)Cn1cnc2ccc(C3CCN(C(=O)C4CCO4)CC3)cc2c1=O` (stereo not drawn) [Example 141] showed an IC50 of 0.002 µM.

`CN(Cc1ccc(Cl)c(Cl)c1)C(=O)Cn1cnc2ccc(N3CCN(C(=O)C4COC4)CC3)cc2c1=O` [Example 79] displayed an IC50 of 0.01 µM.

With `COC(C)C(=O)N1CCC(c2ccc3ncn(CC(=O)N(C)Cc4ccc(Cl)c(Cl)c4)c(=O)c3c2)CC1` (stereo not drawn) [Example 173], the half-maximal inhibitory concentration (IC50) was 0.008 µM.

`CO[C@@H](C)C(=O)N1CCC(c2ccc3ncn(CC(=O)N(C)Cc4ccc(Cl)c(Cl)c4)c(=O)c3c2)CC1` [Example 168] yielded an IC50 of 0.027 µM.

`CNC(=O)CC(NC(=O)Cn1cnc2ccc(N3CCN(C(C)=O)CC3)cc2c1=O)c1ccc(Cl)c(Cl)c1` (stereo not drawn) [Example 52, 3-[[2-[6-(4-Acetylpiperazin-1-yl)-4-oxoquinazolin-3-yl]acetyl]amino]-3-(3,4-dichlorophenyl)-N-methylpropanamide] gave an IC50 of 0.072 µM.

`CC(=O)N1CCN(c2ccc3ncn(CC(=O)NCc4ccc(Cl)c(C(F)(F)F)c4)c(=O)c3c2)CC1` [Example 34]: the IC50 turned out to be 0.024 µM.

For the molecule `CC(=O)N1CCN(c2ccc3ncn(CC(=O)NCc4cc(-c5ccc(Cl)cc5)no4)c(=O)c3c2)CC1` [Example 50], it took 0.456 µM to reach half-maximal inhibition (IC50).

Turning to `CC(=O)N1CCC(c2ccc3ncn(CC(=O)NCc4ccc(C(F)(F)F)cc4)c(=O)c3c2)CC1` [Example 123], it took 0.067 µM to reach half-maximal inhibition (IC50).

As for `O=C(Cn1cnc2ccc(N3CCN(S(=O)(=O)C4CCCCC4)CC3)cc2c1=O)NCc1ccc(Cl)c(Cl)c1` [Example 90], the IC50 stood at 0.035 µM.

Molecule `CC(=O)N1CCN(c2ccc3ncn(CC(=O)NC(CC(=O)N(C)C)c4ccc(Cl)cc4)c(=O)c3c2)CC1` (stereo not drawn) [Example 2] returned an IC50 of 0.36 µM.

`CNC(=O)CC(NC(=O)Cn1cnc2ccc(N3CCN(C(C)=O)CC3)cc2c1=O)c1ccc(C(F)(F)F)cc1` (stereo not drawn) [Example 4] yielded an IC50 of 0.17 µM.

Molecule `O=C(Cn1cnc2ccc(N3CCN(CC(O)CO)CC3)cc2c1=O)NCc1ccc(Cl)c(Cl)c1` (stereo not drawn) [Example 95] gave an IC50 of 0.068 µM.

As for `CC(C)[C@H](O)C(=O)N1CCC(c2ccc3ncn(CC(=O)N(C)Cc4ccc(Cl)c(Cl)c4)c(=O)c3c2)CC1` [Example 170], half-maximal inhibition (IC50) required 0.014 µM.

`NS(=O)(=O)CC(=O)N1CCN(c2ccc3ncn(CC(=O)NCc4ccc(Cl)c(Cl)c4)c(=O)c3c2)CC1` [Example 71] registered an IC50 of 0.026 µM.

As for `COCC(=O)N1CCC(c2ccc3ncn(CC(=O)N(Cc4ccc(Cl)c(Cl)c4)C4CC4)c(=O)c3c2)CC1` [Example 146, N-Cyclopropyl-N-[(3,4-dichlorophenyl)methyl]-2-[6-[1-(2-methoxyacetyl)piperidin-4-yl]-4-oxoquinazolin-3-yl]acetamide], the 50% inhibitory concentration (IC50) was 0.001 µM.

On to `O=C(Cn1cnc2ccc(N3CCN(C(=O)C4CCCCC4)CC3)cc2c1=O)NCc1ccc(Cl)c(Cl)c1` [Example 65], for which half-maximal inhibition (IC50) required 0.01 µM.

With `C[C@@H](O)C(=O)N1CCC(c2ccc3ncn(CC(=O)N(C)Cc4ccc(C#N)c(Cl)c4)c(=O)c3c2)CC1` [Example 156], half-maximal inhibition (IC50) was put at 0.561 µM.

The molecule `CO[C@@H](C)C(=O)N1CCC(c2ccc3ncn(CC(=O)N(C)Cc4ccc(C#N)c(Cl)c4)c(=O)c3c2)CC1` [Example 159] yielded an IC50 of 0.001 µM.

The molecule `CC(=O)N1CCN(c2ccc3ncn(CC(=O)NCc4ccc(Cl)nc4)c(=O)c3c2)CC1` [Example 11] returned an IC50 of 0.119 µM.
